Laboratory results as given in patent US11672786B2, “Methods of treating diseases associated with repeat instability” (The Hospital for Sick Children, priority 2016, dated 2023).

How the values were obtained:
[1] = tested on: transgene transcript in the CAG-direction, HT1080-(CAG)850 cells; assay: transgene mRNA quantification by quantitative RT-PCR; type: cell-based, human; conditions: NA 50 μM, 72 hr
Description: FIG. 5 are results from experiments showing that NA induces CAG contractions in HT1080-(CAG)850 cells, independent of proliferation, dependent upon rCAG transcription. […] Panel B of FIG. 5 are histograms showing repeat length distributions in HT1080-(CAG)850 cells. Frequency distribution of unstable alleles is shown by gray bars. Frequency of stable alleles is shown by black bars. To facilitate comparisons, a dashed line indicates the unchanged CAG size. Allele lengths are grouped in bins spanning 50 repeats. […] More than 50 alleles were sized for each group. P-value was calculated by chi-square test (Table 2). […] P-value was calculated by Student's t-test. […] Quantitative reverse transcription (RT)-PCR was performed using TaqMan Gene Expression assays. […]
RNA was harvested from the HT1080-(CAG)850 cells at 72 hr after adding or not adding NA using the RNeasy Plus Micro Kit (Qiagen). Total RNA was primed with random hexamers and reverse transcribed with Superscript III (Life Technologies, Carlsbad, Calif.), followed by treatment with RNase H. Quantitative reverse transcription (RT)-PCR was performed using TaqMan Gene Expression assays or PrimeTime qPCR assays on an ABI PRISM 7900HT Sequence Detection System (Life Technologies) and the primer sequences shown in Table 1. […] The results were statistically analyzed using paired t-tests. […]

[2] = tested on: long (CAG)20 slip-outs from (CAG)50●(CTG)30; assay: band-shift NA-DNA binding, long (CAG)20 slip-out; parameters: species or system human; conditions: NA 0.15-50 μM, 4% polyacrylamide gel
Description: FIG. 2 are the results of experiments showing that NA binds to long CAG slip-outs. […] The (CAG)n DNA sequence (left) can fold into an hairpin structure involving mismatched A-A pair flanking C-G base pairs (middle). NA molecules can intercalate into the DNA helix, with the 2-amino-1,8-naphthyridine moiety (in red) hydrogen bonding to guanine and 8-azaquinolone moiety (in blue) hydrogen bonding to adenine. […] Long slip-outs extruded as a single slip-out from a fully base-paired backbone of (CTG)n●(CAG)n, as described (Pearson et al., 2002, Nuc. Acids Res., 30:4534-47). DNAs were mixed with increasing concentrations of NA (0.15 μM, 0.75 μM, 7.5 μM and 50 μM) and resolved on 4% polyacrylamide gels. All lanes are from the same gel, and they were separated for clarity. NA-DNA complexes are shown by brackets, free DNA is indicated by arrowheads. […] The relative migration was measured for the linear and the three slip-outs substrates as the ratio of the migration distance of each NA-DNA complex to the migration distance of the free DNA. The migration distance was measured from the well to a consistent center point of each band. […]

[3] = tested on: plasmid harboring (CAG)79●(CTG)79 repeats, R-loops; assay: in vitro transcription, R-loop formation, RNase A/H processing and R-loop stability; type: biochemical
Description: Reaction products were then treated with RNase A (labeled “A”), to cleave all single-stranded RNAs, and resolved on 1% agarose gel. Control treatment with RNaseH (labeled “H”), eliminating RNA:DNA hybrids, was performed to reveal the RNA-free supercoiled DNAs. […] Reaction products then were resolved on 1% agarose gel. […] Double-R-loops were then treated with RNaseA or H (labeled “A” or “H”) and incubated with NA (50 μM). Reaction products were then resolved on 1% agarose gel. […] The position of supercoiled plasmid in dimer or monomer form is indicated by “SC”. The top “SC” represents linked dimers and the bottom “SC” represents monomers. In Panels C, D, and E, NA was either included in the transcription reaction (Panel C), only in the RNAse A/H reaction, only following the RNAse A/H clean-up.
Transcription reactions were performed as previously described (Reddy et al., 2014, Nuc. Acids Res., 42:10473-87). Briefly, 500 ng of template DNA in 1× transcription buffer (Roche) and 1× bovine serum albumin (NEB) were mixed for 1 h with 20 U of the appropriate RNA polymerase: T7, T3 or T7+T3 (Roche), with or without NA 120 μM. Samples were purified and then treated with either 1 g of RNase A (Roche) alone or with 1 g of RNase A (Roche) and 1 U of E. coli RNase H (Roche), at room temperature for 30 min, in the presence or in the absence of NA (120 μM). All in vitro transcription reaction products were analyzed on 1% agarose gels run in 1×TBE buffer at 80 V for 3 h. Gels were subsequently stained with ethidium bromide (0.5 mg/ml) to allow visualization of total nucleic acid under ultraviolet (UV) light.

naphthyridine-azaquinolone
effect on RNA transcript levels of transgene [1]: did not affect transcription of the CAG-repeats containing transcript | NA binding (band-shift) [2]: extensively bound | effect on biophysical stability of R-loops ([3]; NA 50 μM or 500 μM): did not affect the biophysical stability of R-loops | effect on R-loop formation ([3]; NA 120 μM during transcription): did not affect R-loop formation | effect on transcription in vitro ([3]; T3 or T7 RNA polymerases): nor did it affect transcription in vitro
